Consider 40 compounds from patent US11919918B2, “P2X3 andor P2X2/3 receptor antagonist, pharmaceutical composition comprising same, and use thereof” (BEIJING TIDE PHARMACEUTICAL CO., LTD., priority 2017, dated 2024).

Molecules are shown by their SMILES.

The target of one assay is human P2X3 receptor (Homo sapiens (Human), UniProt P56373). The assay can be described thus: Inhibitory activity on human P2X3 receptor (calcium 6 dye FLIPR assay, agonist α,β-MeATP). Type of assay: cell-based. As to conditions: HEK293-P2X3 stably expressing cell line, FLIPR Tetra. The method, then: (§1) Biological Assay: Determination of the Inhibitory Activity of the Compounds on Human P2X3 and P2X2/3 Receptors
Sequence of human P2X3 receptor (P56373 whole entry): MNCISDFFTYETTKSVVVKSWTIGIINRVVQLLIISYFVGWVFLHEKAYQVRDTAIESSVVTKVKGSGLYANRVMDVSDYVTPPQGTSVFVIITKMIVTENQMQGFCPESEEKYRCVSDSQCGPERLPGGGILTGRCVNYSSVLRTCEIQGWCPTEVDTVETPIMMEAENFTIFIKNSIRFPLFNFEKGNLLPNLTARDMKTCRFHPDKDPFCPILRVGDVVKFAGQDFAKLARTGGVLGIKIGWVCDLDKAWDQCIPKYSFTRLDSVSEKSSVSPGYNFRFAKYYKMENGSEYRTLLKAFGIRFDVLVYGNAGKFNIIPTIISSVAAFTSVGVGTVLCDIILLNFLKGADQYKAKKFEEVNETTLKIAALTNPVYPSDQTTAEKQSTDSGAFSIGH
(§2) Cells were seeded into a poly-D-lysine-coated 384-well cell culture plate (Corning) at a density of 11,000 cells/well/25 μL of cell inoculation medium, and were cultured in a cell incubator overnight. On the day of the test, the calcium 6 dye was diluted to a 2× concentration with a assay buffer, 25 μL of the 2× calcium 6 dye was added to the 384-well cell culture plate, which was incubated at 37° C. for 2 hours, and then placed at room temperature for further use. The test compound and the agonist, α,β-MeATP were diluted to a 7× concentration with the assay buffer, 10 μL of the 7× test compound was added to the 384-well cell culture plate, which was incubated at room temperature for 15 minutes, and 10 μL of the 7× α,β-MeATP was transferred into the 384-well cell culture plate. The data were measured and analyzed using FLIPR Tetra, and the half inhibitory concentration (IC50) of the test compound on P2X3 and P2X2/3 receptors was calculated with the GraphPad Prism four-parameter equation.
(§3) Cell lines: human embryonic kidney cells HEK293-P2X3 and HEK293-P2X2/3 stably expressing cell lines;
(§4) Complete cell culture medium: DMEM High Glucose (Life Technology), which contained 10% fetal bovine serum, 4 mM GlutaMAX, 1% penicillin-streptomycin, and 350 μg/mL G418;
(§5) Cell inoculation medium: DMEM High Glucose (Life Technology), which contained 2% fetal bovine serum, and 4 mM GlutaMAX;
(§6) Cell culture conditions: 37° C., 5% CO2;
(§7) Assay buffer: HBSS (containing calcium and magnesium ions), which contained 20 mM HEPES;
(§8) Detection equipment: FLIPR Tetra (Molecular Devices);

The target of another assay is human P2X2/3 receptor (Homo sapiens (Human), UniProt P56373+Q9UBL9). The assay can be described thus: Inhibitory activity on human P2X2/3 receptor (calcium 6 dye FLIPR assay, agonist α,β-MeATP). Type of assay: cell-based. Conditions: HEK293-P2X2/3 stably expressing cell line, FLIPR Tetra. The method, then: as §1, §2, §3, §4, §5, §6, §7, §8
Sequence of human P2X2/3 receptor (Q9UBL9 whole entry): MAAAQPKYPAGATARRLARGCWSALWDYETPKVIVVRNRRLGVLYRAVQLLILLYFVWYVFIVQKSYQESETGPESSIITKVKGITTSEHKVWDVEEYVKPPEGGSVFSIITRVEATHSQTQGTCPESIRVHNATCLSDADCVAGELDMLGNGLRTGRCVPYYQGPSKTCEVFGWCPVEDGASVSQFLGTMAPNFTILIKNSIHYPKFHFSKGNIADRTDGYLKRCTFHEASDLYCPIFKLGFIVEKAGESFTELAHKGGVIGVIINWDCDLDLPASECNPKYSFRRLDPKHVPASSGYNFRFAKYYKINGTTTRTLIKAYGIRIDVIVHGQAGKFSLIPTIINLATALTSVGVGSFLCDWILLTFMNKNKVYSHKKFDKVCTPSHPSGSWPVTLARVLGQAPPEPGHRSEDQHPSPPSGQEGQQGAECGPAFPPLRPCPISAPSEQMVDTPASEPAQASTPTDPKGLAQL
Sequence of human P2X2/3 receptor (P56373 whole entry): as the sequence (P56373 whole entry) above

With `CC(C)c1c[n+]([O-])c(Br)cc1Oc1cnc(N)nc1N` [C1], the IC50 at human P2X3 receptor was found to be 746 nM.

On to `CC(C)c1cnc(Cl)cc1Sc1cnc(N)nc1N` [C84], for which the values for the IC50 at human P2X2/3 receptor and at human P2X3 receptor were 742 nM and 536 nM, respectively.

With `C=C(C)c1cnc(NC)cc1Oc1cnc(N)nc1N` [C192], the figures for the IC50 at human P2X2/3 receptor and on human P2X3 receptor were 69 nM and 53 nM, respectively.

Consider `CNc1ncc(Oc2cc(Br)ncc2C(C)C)c(NC)n1` [C227], for which the IC50 at human P2X3 receptor worked out at 948 nM.

Take `CC(C)c1cnc(Cl)cc1Oc1cnc(N)nc1N` [Compound C3, 5-((2-chloro-5-isopropylpyridin-4-yl)oxy)pyrimidine-2,4-diamine]: the figures for the IC50 at human P2X2/3 receptor and at human P2X3 receptor were 341 nM and 205 nM, respectively.

`COc1cc(Oc2cnc(N)nc2N)c(C(C)C)cn1` [Compound C4, 5-((5-isopropyl-2-methoxypyridin-4-yl)oxy)pyrimidine-2,4-diamine]: the values for the IC50 on human P2X2/3 receptor and at human P2X3 receptor were 158 nM and 102 nM, respectively.

Turning to `CC(C)c1cnc(S(N)(=O)=O)cc1Oc1cnc(N)nc1N` [Compound C6, 4-((2,4-diaminopyrimidin-5-yl)oxy)-5-isopropylpyridine-2-sulfonamide], the IC50 at human P2X3 receptor was determined as 348 nM.

For `CC(C)c1cnc(I)cc1Oc1cnc(N)nc1N` [Compound C12, 5-((2-iodo-5-isopropylpyridin-4-yl)oxy)pyrimidine-2,4-diamine], the IC50 came out at 56.7 nM on human P2X2/3 receptor and 73.6 nM on human P2X3 receptor.

As to `CC(C)c1cnc(-c2ccccc2)cc1Oc1cnc(N)nc1N` [Compound C13], the IC50 at human P2X2/3 receptor stood at 599 nM; at human P2X3 receptor, 355 nM.

As to `CCc1cc(Oc2cnc(N)nc2N)c(C(C)C)cn1` [Compound C15, 5-((2-ethyl-5-isopropylpyridin-4-yl)oxy)pyrimidine-2,4-diamine], the IC50 amounted to 793 nM at human P2X2/3 receptor and 307 nM on human P2X3 receptor.

On to `CC(C)c1cc(Oc2cnc(N)nc2N)c(C(C)C)cn1` [Compound C16, 5-((2,5-diisopropylpyridin-4-yl)oxy)pyrimidine-2,4-diamine], for which, on human P2X3 receptor, the IC50 was 802 nM.

Turning to `CSc1cc(Oc2cnc(N)nc2N)c(C(C)C)cn1` [Compound C20, 5-((5-isopropyl-2-(methylthio)pyridin-4-yl)oxy)pyrimidine-2,4-diamine], the IC50 was determined as 75.7 nM on human P2X2/3 receptor and 44.4 nM at human P2X3 receptor.

Turning to `CC(C)c1cnc(N)cc1Oc1cnc(N)nc1N` [Compound C21, 5-((2-amino-5-isopropylpyridin-4-yl)oxy)pyrimidine-2,4-diamine], the values for the IC50 on human P2X2/3 receptor and on human P2X3 receptor were 200 nM and 131 nM, respectively.

For `CNc1cc(Oc2cnc(N)nc2N)c(C(C)C)cn1` [Compound C22, 5-((5-isopropyl-2-(methylamino)pyridin-4-yl)oxy)pyrimidine-2,4-diamine], the figures for the IC50 at human P2X2/3 receptor and on human P2X3 receptor were 57 nM and 37 nM, respectively.

Consider `CC(C)c1cnc(N(C)C)cc1Oc1cnc(N)nc1N` [Compound C23, 5-((2-(dimethylamino)-5-isopropylpyridin-4-yl)oxy)pyrimidine-2,4-diamine], for which the IC50 stood at 644 nM at human P2X2/3 receptor and 365 nM at human P2X3 receptor.

On to `COc1cc(Oc2cnc(N)nc2N)c(C2CC2)cn1` [Compound C33, 5-((5-cyclopropyl-2-methoxypyridin-4-yl)oxy) pyrimidine-2,4-diamine], for which the half-inhibitory concentration (IC50) at human P2X2/3 receptor was determined as 262 nM; on human P2X3 receptor, 238 nM.

As to `CC(C)c1cnc(-c2cn[nH]c2)cc1Oc1cnc(N)nc1N` [Compound C35, 5-((5-isopropyl-2-(1H-pyrazol-4-yl)pyridin-4-yl)oxy)pyrimidine-2,4-diamine], the IC50 on human P2X3 receptor was 1170 nM.

Turning to `CC(C)c1cnc(-n2cccc2)cc1Oc1cnc(N)nc1N` [Compound C38, 5-((5-isopropyl-2-(1H-pyrrol-1-yl)pyridin-4-yl)oxy)pyrimidine-2,4-diamine], at human P2X3 receptor, the IC50 amounted to 787 nM.

Regarding `CC(C)c1cnc(-c2ccco2)cc1Oc1cnc(N)nc1N` [Compound C39, 5-((2-(furan-2-yl)-5-isopropylpyridin-4-yl)oxy)pyrimidine-2,4-diamine], the results for the IC50 on human P2X2/3 receptor and at human P2X3 receptor were 243 nM and 166 nM, respectively.

`C=Cc1cc(Oc2cnc(N)nc2N)c(C(C)C)cn1` [Compound C43]: the concentration for half-maximal inhibition (IC50) on human P2X2/3 receptor came out at 180 nM; at human P2X3 receptor, 55 nM.

As to `C=C(C)c1cc(Oc2cnc(N)nc2N)c(C(C)C)cn1` [Compound C44], the IC50 worked out at 423 nM on human P2X2/3 receptor and 116 nM on human P2X3 receptor.

On to `C=C(OCC)c1cc(Oc2cnc(N)nc2N)c(C(C)C)cn1` [Compound C45, 5-((2-(1-ethoxyvinyl)-5-isopropylpyridin-4-yl)oxy)pyrimidine-2,4-diamine], for which the IC50 at human P2X3 receptor came to 435 nM.

Turning to `CC(C)c1cnc(C2CC2)cc1Oc1cnc(N)nc1N` [Compound C52, 5-((2-cyclopropyl-5-isopropylpyridin-4-yl)oxy)pyrimidine-2,4-diamine], the IC50 at human P2X2/3 receptor came out at 589 nM; on human P2X3 receptor it was 147 nM.

With `CCN(C)c1cc(Oc2cnc(N)nc2N)c(C(C)C)cn1` [Compound C61, 5-((2-(ethyl(methyl)amino)-5-isopropylpyridin-4-yl)oxy)pyrimidine-2,4-diamine], the IC50 at human P2X2/3 receptor came to 592 nM; on human P2X3 receptor, 274 nM.

Regarding `CC(C)c1cnc(N(C)C2CC2)cc1Oc1cnc(N)nc1N` [Compound C65, 5-((2-(cyclopropyl (methyl)amino)-5-isopropylpyridin-4-yl)oxy) pyrimidine-2,4-diamine], the IC50 at human P2X2/3 receptor came out at 506 nM; at human P2X3 receptor, 334 nM.

Regarding `C#Cc1cc(Oc2cnc(N)nc2N)c(C(C)C)cn1` [Compound C66, 5-((2-ethynyl-5-isopropylpyridin-4-yl)oxy)pyrimidine-2,4-diamine], the results for the IC50 at human P2X2/3 receptor and on human P2X3 receptor were 154 nM and 85 nM, respectively.

Turning to `CC(C)c1cnc(C(F)(F)F)cc1Oc1cnc(N)nc1N` [Compound C67, 5-((5-isopropyl-2-(trifluoromethyl)pyridin-4-yl)oxy)pyrimidine-2,4-diamine], at human P2X3 receptor, the IC50 amounted to 490 nM.

`CC(C)c1cnc(Br)cc1Oc1cnc(N)nc1NCCN(C)C` [Compound C71, 5-((2-bromo-5-isopropylpyridin-4-yl)oxy)-N^4-(2-(dimethylamino)ethyl)pyrimidine-2,4-diamine]: the results for the IC50 at human P2X2/3 receptor and on human P2X3 receptor were 67 nM and 72 nM, respectively.

For `CSc1cc(Oc2cnc(N)nc2NCCN(C)C)c(C(C)C)cn1` [Compound C72, N^4-(2-(dimethylamino)ethyl)-5-((5-isopropyl-2-(methylthio)pyridin-4-yl)oxy)pyrimidine-2,4-diamine], the IC50 on human P2X2/3 receptor was found to be 89 nM; at human P2X3 receptor, 127 nM.

`CC(C)c1cnc(Br)cc1Sc1cnc(N)nc1N` [Compound C85, 5-((2-bromo-5-isopropylpyridin-4-yl)thio)pyrimidine-2,4-diamine]: the half-inhibitory concentration (IC50) at human P2X2/3 receptor was 205 nM; on human P2X3 receptor, 78 nM.

On to `C#Cc1cc(Sc2cnc(N)nc2N)c(C(C)C)cn1` [Compound C88, 5-((2-ethynyl-5-isopropyl-pyrdin-4-yl)thio) pyrimidine-2,4-diamine], for which the IC50 on human P2X2/3 receptor turned out to be 122 nM; at human P2X3 receptor, 133 nM.

As to `CC(C)Nc1cc(Oc2cnc(N)nc2N)c(C(C)C)cn1` [Compound C120, 5-((5-isopropyl-2-(isopropylamino)pyridin-4-yl)oxy)pyrimidine-2,4-diamine], the IC50 on human P2X3 receptor was determined as 492 nM.

In the case of `COc1cc(Oc2cnc(N)nc2N)c(Br)cn1` [Compound C124, 5-((5-bromo-2-methoxypyridin-4-yl)oxy)pyrimidine-2,4-diamine], at human P2X3 receptor, the IC50 is 1240 nM.

On to `CCSc1cc(Sc2cnc(N)nc2N)c(C(C)C)cn1` [Compound C125, 5-((2-(ethylthio)-5-isopropyl-pyridin-4-yl)thio) pyrimidine-2,4-diamine], for which the IC50 at human P2X3 receptor was 731 nM.

In the case of `CC(C)c1cnc(C(N)=O)cc1Oc1cnc(N)nc1N` [Compound C129, 4-((2,4-diamino-pyrimidin-5-yl)oxy)-5-isopropyl-picolinamide], on human P2X3 receptor, the IC50 was determined as 377 nM.

On to `CC(C)c1cnc(/C=C/c2ccccc2)cc1Oc1cnc(N)nc1N` [Compound C138, (E)-5-((5-isopropyl-2-styrylpyridin-4-yl)oxy) pyrimidine-2,4-diamine], for which, on human P2X3 receptor, the IC50 worked out at 635 nM.

Consider `CC(C)c1cnc(CC(=O)c2ccc(N(C)C)cc2)cc1Oc1cnc(N)nc1N` [Compound C155], for which the 50% inhibitory concentration (IC50) at human P2X3 receptor is 926 nM.

As to `CC(C)c1cnc(Br)cc1Oc1cnc(N)nc1N[C@H](C)C1CC1` [Compound C182, (R)-5-((2-bromo-5-isopropylpyridin-4-yl)oxy)-N^4-(1-cyclopro-pylethyl) pyrimidine-2,4-diamine], the half-maximal inhibitory concentration (IC50) on human P2X3 receptor was determined as 670 nM.

For the compound `CC(C)c1cnc(C#Cc2cnc3cccnn23)cc1Oc1cnc(N)nc1N` [Compound C195, 5-((2-(imidazo[1,2-b]pyridazin-3-ylethynyl)-5-isopropylpyridin-4-yl)oxy)pyrimidine-2,4-diamine], at human P2X3 receptor, the half-maximal inhibitory concentration (IC50) amounted to 316 nM.

Consider `CC(C)c1cnc(NCCO)cc1Oc1cnc(NCCO)nc1N` [Compound C242, 2-((4-((4-amino-2-((2-hydroxyethyl)amino)pyrimidin-5-yl)oxy)-5-isopropyl-pyridin-2-yl)amino)ethanol], for which, at human P2X3 receptor, the IC50 worked out at 744 nM.

The term IC50 denotes the concentration at which inhibition is half-maximal.
